A short description of assay [1]: Formation of 2-nonenal from linoleic acid by heating, GC of HSG (Experiment 2). The conditions noted are these: linoleic acid + 100 mg test saccharide, heated at 105° C. for one hour; control 5.75. As for the experimental part: (§1) One hundred milligrams of oleic acid as a fatty acid, 500 mg of cellulose powder, and 1.25 ml of 0.12 M phosphate buffer (pH 6.0) were placed in a 20-ml glass vial. To the glass vial were added 100 mg of either of crystalline trehalose hydrate, crystalline maltitol anhydride, crystalline sorbitol anhydride, crystalline sucrose anhydride, crystalline maltose anhydride, and crystalline neotrehalose hydride as test saccharides (throughout Experiments 1 to 6, these saccharides are designated as “trehalose”, “maltitol”, sorbitol”, “sucrose”, “maltose”, and “neotrehalose”, respectively), followed by sealing the glass vial with a butyl rubber. As a control system, there provided a glass vial, with no a test saccharide, which differed from the test glass vial on this point. These glass vials were heated at 105° C. for one hour, cooled to ambient temperature, and kept in an aluminum heat-block (abbreviated as “heat block, hereinafter”), which had been preheated to 80° C. After 5-minutes standing, two milliliters of a head space gas (abbreviated as “HSG”, hereinafter) were collected from each glass vial with a syringe.
(§2) The collected HSG was analyzed for content of volatile aldehydes on gas chromatography (abbreviated as “GC” hereinafter) using “GAS CHROMATOGRAPH GC-14A”, as a GC apparatus; “CAPILLARY COLUMN SUPELCO-WAX”, having 0.25 mm in inner diameter, 60 m in length, and 0.25 μm in thickness, commercialized by Supelco Inc., Tokyo, Japan, as a column for analysis; helium gas at a flow rate of one ml/min as a carrier gas, under temperature conditions of 250° C. for injecting a sample and of a column thermostatic bath temperature being kept at 80° C. for five minutes and then increased up to 240° C. at a rate of 5° C./min. As standard specimens, propanal, butanal, and hexanal as volatile aldehydes were used. Based on the peak area obtained from gas chromatography for the standard specimens and HSG samples, the content of respective volatile aldehydes in HSG was calculated.
The content of 2-nonenal in HSG was measured by GC similarly as in Experiment 1 except that linoleic acid was used as a fatty acid and 2-nonenal, a volatile aldehyde, was used as a standard substance. The level of a body-odor-like smell, particularly with respect to KAREI-SHU, in each sample was evaluated by panel test in accordance with the method in Experiment 1.

Assay [2] can be described thus: Decomposition of fatty acids by heating, 9-hexadecanoic acid (Experiment 5). The conditions noted are these: heated at 105° C. for one hour with 100 mg test saccharide; control 38.1. On the procedure:
(§3) One hundred milligrams of linoleic acid or 9-hexadecanoic acid as a fatty acid, 500 mg of a cellulose powder, and 1.25 ml of 0.12 M phosphate buffer (pH 6.0) were placed in a 20-ml glass vial. To the glass vial was added 100 mg of either of trehalose, maltitol and sucrose as a test saccharide, followed by sealing with a butyl rubber cap. As a control system, there provided a glass vial with no test saccharide that differed from the test systems only in this point. These vials were heated at 105° C. for one hour. Another glass vial with no heat treatment, which contained the same ingredients as shown in the above, was provided that differed from the test systems only in that it had no heat treatment.
(§4) The above test systems with or without heat treatment and the control system were subjected to the following methyl esterification reaction and analyzed on GC to measure the content of fatty acids; To each glass vial was added 20 ml of a mixture solution of chloroform and methanol (=2:1 by volume) to extract fatty acids, and one milliliter of each resulting extract was collected in a 10-ml eggplant-shape flask, concentrated, and dried in vacuo. […]
(§5) Two microliters of each of the resulting n-hexane layers were analyzed on GC using “GAS CHROMATOGRAPH GC-14A”, a GC apparatus, commercialized by Shimadzu Corporation, Tokyo, Japan; and “CAPILLARY COLUMN FFAP”, an analysis column having an inner diameter of 0.25 mm, a length of 30 m, and a membrane thickness of 0.25 μm, commercialized by GL Sciences Inc., Tokyo, Japan, under the conditions of using helium gas as a carrier at a flow rate of 1 ml/min, at a temperature of 250° C. as a sample injection temperature, a column thermostatic bath temperature being kept at 80° C. for five minutes and then increased up to 240° C. at a rate of 5° C./min, and a hydrogen flame ionization detector for detecting fatty acids. Based on the peak area of the obtained gas chromatograms, it was calculated the content of fatty acids, i.e., linoleic acid and 9-hexadecanoic acid, before or after the heat treatment in the test- and control-systems. […]

The nature of assay [3]: Decomposition of fatty acids by heating, linoleic acid (Experiment 5). As to conditions: heated at 105° C. for one hour with 100 mg test saccharide; control 60.0. On the procedure: as §3, §4, §5
Assay [4] can be described thus: Panel test of body-odor-like smell (KAREI-SHU), 9-hexadecanoic acid heated (Experiment 3). Details: key: +++: the same or higher level of odor; ++: slightly lower level of odor; +: clearly lower level of odor than the control system. The conditions noted are these: compared with control system. The source says:
Upon the HSG samples, the level of a body-odor-like smell was examined on a panel test consisting of six professional panels; the panels directly smelled the samples from each glass vial and judged the level of the smells for each samples with test saccharides based on the following four ranks, i.e., the same or higher level of odor (+++), slightly lower level of odor (++), clearly lower level of odor (+), and odorless (−) as compared with the control system. Summing up the data from the panels, the samples tested were totally evaluated.
The content of 2-nonenal in HSG was measured by GC similarly as in Experiment 1 except that 9-hexadecanoic acid or palmitoleic acid was used as a fatty acid and 2-nonenal, a volatile aldehyde, was used as a standard substance. The level of body-odor-like smell, particularly with respect to KAREI-SHU, in each sample was evaluated by panel test in accordance with the method in Experiment 1.

Assay [5] can be described thus: Formation of volatile aldehydes from oleic acid by heating, GC analysis of head space gas (Experiment 1). As to conditions: oleic acid 100 mg + 100 mg test saccharide, heated at 105° C. for one hour; for Content in HSG, Hexanal: control 0.08; for Content in HSG, Butanal: control 1.04; for Content in HSG, Propanal: control 9.41. On the procedure: as §1, §2

As for `OC[C@H]1O[C@H](O[C@H]2O[C@H](CO)[C@@H](O)[C@H](O)[C@H]2O)[C@H](O)[C@@H](O)[C@@H]1O` [Trehalose, trehalose], the “Content of 2-nonenal in HSG” value in assay [1] is 1.27 µg/mL. The “Decomposition percentage, 9-Hexadecanoic acid” value in assay [2] is on record as 13.2%. In assay [3], the “Decomposition percentage, Linoleic acid” value is reported as 25.2%. In addition, the “Evaluation of panel test” value in assay [4] is “+”. In assay [5], the “Content in HSG, Hexanal” value turned out to be 0.02 µg/mL; the “Content in HSG, Butanal” value was found to be 0.19 µg/mL; the “Content in HSG, Propanal” value amounted to 3.47 µg/mL.
`OC[C@@H](O)[C@@H](O[C@H]1O[C@H](CO)[C@@H](O)[C@H](O)[C@H]1O)[C@H](O)[C@@H](O)CO` [Maltitol, maltitol]: the “Content of 2-nonenal in HSG” value in assay [1] was determined as 1.73 µg/mL. The “Decomposition percentage, 9-Hexadecanoic acid” value in assay [2] is 14.7%. Moreover, the “Decomposition percentage, Linoleic acid” value in assay [3] was determined as 33.4%. Also, in assay [4], the “Evaluation of panel test” value was “+”. Also, in assay [5], the “Content in HSG, Hexanal” value was determined as 0.03 µg/mL; the “Content in HSG, Butanal” value was found to be 1.02 µg/mL; the “Content in HSG, Propanal” value was 4.09 µg/mL.
In the case of `OC[C@H]1O[C@@](CO)(O[C@H]2O[C@H](CO)[C@@H](O)[C@H](O)[C@H]2O)[C@@H](O)[C@@H]1O` [Sucrose, sucrose], the “Content of 2-nonenal in HSG” value in assay [1] amounted to 5.41 µg/mL. Also, the “Decomposition percentage, 9-Hexadecanoic acid” value in assay [2] is on record as 38.5%. For the same molecule, the “Decomposition percentage, Linoleic acid” value in assay [3] amounted to 58.0%. In addition, in assay [5], the “Content in HSG, Hexanal” value turned out to be 0.07 µg/mL; the “Content in HSG, Butanal” value stood at 1.11 µg/mL; the “Content in HSG, Propanal” value was found to be 9.98 µg/mL.

For the origin of these results see patent publication US6497862B2, “Composition for inhibiting body odor and uses thereof” (Kabushiki Kaisha Hayashibara, priority 2000, dated 2002).
